Source: paper PMC4057235, “Development and Evaluation of Small Peptidomimetic Ligands to Protease-Activated Receptor-2 (PAR2) through the Use of Lipid Tethering” (PLoS ONE, 2014)
pEC50: −log10 of the molar value.

What was measured:
PAR2 [1] = target: T1, PAR2 (Homo sapiens, UniProt P55085); assay: Ca2+ desensitization assay in 16HBE14o- cells with 2at-LIGRL-NH2; assay type: cell-based; conditions: compound at its activating concentration, ATP 5 µM
T1 construct: 16HBE14o- cells on E-plates in growth medium; endogenous in cells; host or cells: 16HBE14o- cells
T1 sequence (P55085 26-397): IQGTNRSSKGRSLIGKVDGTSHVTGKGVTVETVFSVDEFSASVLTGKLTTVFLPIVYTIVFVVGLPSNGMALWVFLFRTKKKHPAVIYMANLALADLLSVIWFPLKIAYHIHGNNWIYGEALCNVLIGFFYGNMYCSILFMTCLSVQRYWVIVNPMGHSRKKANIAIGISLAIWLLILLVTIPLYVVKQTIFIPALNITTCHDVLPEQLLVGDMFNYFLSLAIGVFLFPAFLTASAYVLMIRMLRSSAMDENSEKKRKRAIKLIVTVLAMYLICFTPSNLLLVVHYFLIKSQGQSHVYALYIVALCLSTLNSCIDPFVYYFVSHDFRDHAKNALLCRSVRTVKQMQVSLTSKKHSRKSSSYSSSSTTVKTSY
Method: 16HBE14o- cells or CHO cells were loaded with fura 2-acetomethoxyl ester (CalBiochem or Molecular Probes) for 30 min at room temperature. Cells were washed with HBSS and allowed to sit for at least 20 min prior to digital imaging. For activation and desensitization assay experiments using 16HBE14o- cells, [Ca^2+]i was measured as previously described. Experiments consisted of 20 sec of recording of cells in HBSS to determine resting [Ca^2+]i, followed by a 10 sec wash to introduce ligand and up to 10 min of recording for ligand washes required for desensitization experiments. Briefly, fura-2 fluorescence was observed on an Olympus IX70 microscope with a 40X oil immersion objective after alternating excitation between 340 and 380 nm by a 75 W Xenon lamp linked to a Delta Ram V illuminator (PTI) and a gel optic line. Intracellular Ca^2+ concentration ([Ca^2+]i) for each individual cell in the field of view was calculated by ratiometric analysis of fura-2 fluorescence using equations originally published in [31]. Individual ratios were calculated every sec throughout the experiments. […] Percent activation graphs are determined from 3–6 experiments for each ligand concentration. […] Ca^2+ imaging of CHO cells was similar; each ligand concentration tested included at least 3 experiments and a minimum of 200 cells analyzed during each experiment. […]

PAR2 [2] = target: T1, PAR2; design: method as in PMID 21467041; conditions: 16HBE14o- cells; read-out: RTCA EC50; cited from earlier work
MrgprC11 [3] = target: T2, MrgprC11 (Mus musculus, UniProt Q8CIP3); assay: Ca2+ response in MrgprC11 transfected CHO cells; assay type: cell-based
T2 construct: An MrgprC11 cDNA in pcDNA3.1 vector was transfected into CHO cells; expressed in transfected cells; host or cells: CHO cells, transient transfection with Lipofectamine 2000
T2 sequence (Q8CIP3 1-322): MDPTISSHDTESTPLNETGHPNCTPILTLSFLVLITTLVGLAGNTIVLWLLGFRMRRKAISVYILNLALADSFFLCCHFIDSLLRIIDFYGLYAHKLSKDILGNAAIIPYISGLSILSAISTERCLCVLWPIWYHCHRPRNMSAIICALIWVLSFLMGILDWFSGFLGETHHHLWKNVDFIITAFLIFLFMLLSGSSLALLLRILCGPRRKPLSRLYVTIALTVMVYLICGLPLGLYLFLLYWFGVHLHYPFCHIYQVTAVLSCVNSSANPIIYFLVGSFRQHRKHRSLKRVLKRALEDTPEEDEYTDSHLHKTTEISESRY
Method: CHO cells were cultured in DMEM supplemented with 10% FBS and 1% penicillin and streptomycin at 37°C in a 5% CO2 atmosphere. One day before transfection, CHO cells were plated in a 60 mm cell culture dish at a concentration of 1×10^5 cells/cm^2 and grown without antibiotics. An MrgprC11 cDNA in pcDNA3.1 vector was transfected into CHO cells using Lipofectamine™ 2000 (Invitrogen) prior to transfer to coverslips for experiments. Coverslips were coated with 0.1 mg/ml poly-D-lysine (from 2 mg/ml stock) and incubated for 1 hr at room temperature, after which the coating solution was removed and the coverslips were washed twice with double distilled water. CHO cells were seeded on coverslips at a concentration of 1×10^5 cells/cm^2 6 hr after transfection. Transfected cells were incubated for 24 hr prior to Ca^2+ imaging.
16HBE14o- cells or CHO cells were loaded with fura 2-acetomethoxyl ester (CalBiochem or Molecular Probes) for 30 min at room temperature. Cells were washed with HBSS and allowed to sit for at least 20 min prior to digital imaging. For activation and desensitization assay experiments using 16HBE14o- cells, [Ca^2+]i was measured as previously described. Experiments consisted of 20 sec of recording of cells in HBSS to determine resting [Ca^2+]i, followed by a 10 sec wash to introduce ligand and up to 10 min of recording for ligand washes required for desensitization experiments. Briefly, fura-2 fluorescence was observed on an Olympus IX70 microscope with a 40X oil immersion objective after alternating excitation between 340 and 380 nm by a 75 W Xenon lamp linked to a Delta Ram V illuminator (PTI) and a gel optic line. Intracellular Ca^2+ concentration ([Ca^2+]i) for each individual cell in the field of view was calculated by ratiometric analysis of fura-2 fluorescence using equations originally published in [31]. Individual ratios were calculated every sec throughout the experiments. [Ca^2+]i traces over time are averaged [Ca^2+]i of all cells within a field of view (80–120) and are representative of at least 3 experiments. Cells were considered activated by the ligand if their resting [Ca^2+]i was increased above a 200 nM threshold, a 2–4 fold increase above typical resting values. Percent activation graphs are determined from 3–6 experiments for each ligand concentration. Time to threshold in individual cells represent between 200–400 cells from at least 3 experiments at each ligand concentration. Ca^2+ imaging of CHO cells was similar; each ligand concentration tested included at least 3 experiments and a minimum of 200 cells analyzed during each experiment.

MrgprC11 [4] = target: T2, MrgprC11; design: method as in PMID 21775281; conditions: cited from earlier work
[5] = design: method as in PMID 20873792; conditions: at high concentrations (100 µM); cited from earlier work

With Nc1ncnc2c1ncn2[C@@H]1O[C@H](COP(=O)(O)OP(=O)(O)OP(=O)(O)O)[C@@H](O)[C@H]1O [ATP] the “Ca2+ response after PAR2 desensitization with 50 µM 2at-LIGRL-NH2” value (PAR2 [1]) was “remained an effective agonist”.
In the case of 2at-LIGRL-NH2 [reference compound], the pEC50 (PAR2 [2]) is given as 6.51, the “Ca2+ response (% of cells)” value (MrgprC11 [3]; 1 µM) is given as “no response” and the “Ca2+ response (% of cells)” value (MrgprC11 [3]; 10 µM) is given as 10%. For the same molecule, the “Ca2+ response after PAR2 desensitization with 50 µM 2at-LIGRL-NH2” value (PAR2 [1]) was “did not result in an increase of [Ca^2+]i”.
For SLIGR-NH2, the MrgprC11 signaling (MrgprC11 [4]) is given as “lost MrgprC11 signaling capacity”.
For CCC(C)C(NC(=O)C(CC1CCCCC1)NC(=O)c1ccno1)C(N)=O (stereo not drawn) [Compound 5io-Cha-I-NH2], the solubility [5] is given as “lack of solubility”.
In the case of SLIGRL-NH2 (H-SLIGRL-NH2), the pEC50 (MrgprC11 [4]; read-out: MrgprC11 activation EC50) is listed as 5.00.
In the case of 6-aminonicotinyl-LIGRL-NH2, the pEC50 (PAR2 [2]) is given as 6.37.
